According to the supplement of paper PMC10307832:

Experiments:
Assay in all cases: relative viability (nuclei count vs DMSO), 5 days (fraction); higher = more cells survive
Vorinostat + Dasatinib = compound: O=C(CCCCCCC(=O)Nc1ccccc1)NO [Vorinostat] + Cc1nc(Nc2ncc(C(=O)Nc3c(C)cccc3Cl)s2)cc(N2CCN(CCO)CC2)n1 [Dasatinib] (partner 0.075 µM)
Outline: (§1)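 The day after seeding in 1536-well plates, lung cancer cell lines were treated by pin tool with a single drug, or with a fixed anchor-drug dose together with five library-drug doses (not always all listed) in √10 steps. After 5 days, a combined fix-and-stain solution (final 0.05% Triton X-100, 1% formaldehyde, 1 ug/ml Hoechst) was added. Nuclei counted on 4× images gave relative viability as treated counts over vehicle counts, reported as the median of duplicate plates.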

Vorinostat + Decitabine = compound: O=C(CCCCCCC(=O)Nc1ccccc1)NO [Vorinostat] + Nc1ncn([C@H]2C[C@H](O)[C@@H](CO)O2)c(=O)n1 [Decitabine] (partner 2 µM)
Outline: as §1

Vorinostat + Palbociclib = compound: O=C(CCCCCCC(=O)Nc1ccccc1)NO [Vorinostat] + CC(=O)c1c(C)c2cnc(Nc3ccc(N4CCNCC4)cn3)nc2n(C2CCCC2)c1=O [Palbociclib] (partner 0.5 µM)
Outline: as §1

Vorinostat + Tozasertib = compound: O=C(CCCCCCC(=O)Nc1ccccc1)NO [Vorinostat] + Cc1cc(Nc2cc(N3CCN(C)CC3)nc(Sc3ccc(NC(=O)C4CC4)cc3)n2)n[nH]1 [Tozasertib] (partner 0.1 µM)
Outline: as §1

Vorinostat + Linsitinib = compound: O=C(CCCCCCC(=O)Nc1ccccc1)NO [Vorinostat] + C[C@]1(O)C[C@@H](c2nc(-c3ccc4ccc(-c5ccccc5)nc4c3)c3c(N)nccn32)C1 [Linsitinib] (partner 1 µM)
Outline: as §1

| Cell Line | relative viability (Vorinostat + Dasatinib; first compound 0.253 µM) | relative viability (Vorinostat + Dasatinib; first compound 0.8 µM) | relative viability (Vorinostat + Dasatinib; first compound 2.53 µM) | relative viability (Vorinostat + Dasatinib; first compound 8 µM) | relative viability (Vorinostat + Decitabine; first compound 0.253 µM) | relative viability (Vorinostat + Decitabine; first compound 0.8 µM) | relative viability (Vorinostat + Decitabine; first compound 2.53 µM) | relative viability (Vorinostat + Decitabine; first compound 8 µM) | relative viability (Vorinostat + Palbociclib; first compound 0.253 µM) | relative viability (Vorinostat + Palbociclib; first compound 0.8 µM) | relative viability (Vorinostat + Palbociclib; first compound 2.53 µM) | relative viability (Vorinostat + Palbociclib; first compound 8 µM) | relative viability (Vorinostat + Tozasertib; first compound 0.253 µM) | relative viability (Vorinostat + Tozasertib; first compound 0.8 µM) | relative viability (Vorinostat + Tozasertib; first compound 2.53 µM) | relative viability (Vorinostat + Tozasertib; first compound 8 µM) | relative viability (Vorinostat + Linsitinib; first compound 0.253 µM) | relative viability (Vorinostat + Linsitinib; first compound 0.8 µM) | relative viability (Vorinostat + Linsitinib; first compound 2.53 µM) | relative viability (Vorinostat + Linsitinib; first compound 8 µM) |
| --- | --- | --- | --- | --- | --- | --- | --- | --- | --- | --- | --- | --- | --- | --- | --- | --- | --- | --- | --- | --- |
| LC-2-ad | 0.585 | 0.235 | 0.127 | 0.124 | 0.839 | 0.69 | 0.469 | 0.227 | 0.566 | 0.455 | 0.331 | 0.186 | 0.418 | 0.303 | 0.217 | 0.147 | 0.868 | 0.606 | 0.13 | 0.136 |
| HCC-366 | 0.805 | 0.426 | 0.102 | 0.0346 | 0.383 | 0.244 | 0.0518 | 0.0306 | 0.345 | 0.182 | 0.0412 | 0.0283 | 0.0967 | 0.0579 | 0.033 | 0.031 | 0.637 | 0.545 | 0.0527 | 0.0206 |
| NCI-H2023 | 0.872 | 0.49 | 0.134 | 0.061 | 0.242 | 0.177 | 0.11 | 0.0687 | 0.467 | 0.375 | 0.199 | 0.0512 | 0.364 | 0.215 | 0.11 | 0.0623 | 0.841 | 0.682 | 0.296 | 0.0892 |
| PC-3 [JPC-3] | 1 | 1 | 0.593 | 0.227 | 0.807 | 0.71 | 0.429 | 0.381 | 0.521 | 0.506 | 0.45 | 0.378 | 0.821 | 0.741 | 0.229 | 0.266 | 0.886 | 0.938 | 0.625 | 0.281 |
| NCI-H2342 | 0.304 | 0.315 | 0.274 | 0.28 | 0.58 | 0.715 | 0.529 | 0.391 | 0.529 | 0.502 | 0.58 | 0.488 | 0.436 | 0.322 | 0.335 | 0.262 | – | – | – | – |
| LOU-NH91 | 0.661 | 0.577 | 0.544 | 0.361 | 0.845 | 0.854 | 0.702 | 0.45 | 0.533 | 0.515 | 0.512 | 0.384 | 0.615 | 0.481 | 0.36 | 0.295 | 1.1 | 0.901 | 0.547 | 0.338 |
| LCLC-97TM1 | 0.914 | 0.68 | 0.365 | 0.226 | 0.236 | 0.264 | 0.129 | 0.0801 | 0.256 | 0.201 | 0.109 | 0.0671 | 0.19 | 0.158 | 0.159 | 0.149 | – | 0.167 | 0.144 | 0.115 |
| NCI-H2405 | 0.237 | 0.17 | 0.117 | 0.0585 | 0.794 | 0.741 | 0.478 | 0.121 | 0.604 | 0.627 | 0.286 | 0.13 | 0.718 | 0.692 | 0.339 | 0.117 | 1.13 | 1.09 | 0.245 | 0.0821 |
